pIC50: −log10 of the molar value.
System: DU-145 multicell spheroids with HUVEC/MSC, viability
Experiment: Anticancer human tumor DU-145 cell line growth inhibition [IpAb];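 further: spheroids exposed to agents for seven days before measurement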;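 on viability, T/C: percent of DMSO vehicle control viability so 100% = untreated level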
Settings: for pIC50: curve of first compound; for viability, T/C: stronger effect = lower value
Excerpt: Combinatorial screen of targeted agents with ipatasertib and abemaciclib in multi-cell type tumor spheroids
A high-throughput screen of multi-cell type tumor spheroids was designed to identify active combinations of targeted small molecules and ipatasertib or abemaciclib. Complex spheroids include a stromal component modeled by human endothelial cells (HUVEC) and fibroblasts modeled by human mesenchymal stem cells (MSCs). The concentration ranges selected for each drug and investigational agent were based upon clinically achievable concentrations if the clinical Cmax of the agent was known.
Compounds. The drugs and investigational agents: ipatasertib (NSC767898), abemaciclib(NSC768073), selumetinib (NSC741078), trametinib (758246), adavosertib (NSC754352), everolimus (NSC733504), sapanisertib (NSC764658), vemurafenib (NSC761431), venetoclax (NSC766270), copanlisib (NSC809693), apelisib (NSC765974), palbociblib (NSC758247), vemurafenib (NSC761431), dabrafenib (NSC764134), ravoxertinib (NSC781343), BMS-387032 (NSC767048), sotorasib (NSC818433), talazoparib (NSC767125) and afursertib (NSC778305), were obtained from the National Cancer Institute (NCI) Developmental Therapeutics Program Chemical Repository. The FDA-approved anticancer drug set is available from the NCI Developmental Therapeutics Program. […] The stock solutions were prepared in dimethyl sulfoxide (DMSO, Sigma-Aldrich, St. Louis, MO, cat. D2650) at 800-fold the tested concentration and stored at -70 degrees C prior to their use. All drugs and investigational agents were tested over a range starting from a high concentration at or near the clinical Cmax and decreasing in half-log increments. If the clinical Cmax for an agent had not been determined, the highest concentration tested was 10 microM.
NCI60 Cell Culture. NCI60 cell lines were obtained from the NCI Developmental Therapeutics Program Tumor Repository. For each lot of cells, the Repository performed Applied Biosystems AmpFLSTR Identifiler testing with PCR amplification to confirm consistency with the published Identifier STR profile for each cell line. Cells were kept in continuous culture for no more than 20 passages. The optimal seeding densities for each of the cell lines at each time point assessed were determined prior to performing the concentration response studies. Briefly, the NCI60 human tumor lines were grown as monolayers in RPMI 1640 medium supplemented with 10% FBS and 2 mmol/L L-glutamine.
An additional 9 lines were from the NCI60 cell line panel including MDA-MB-231 breast carcinoma, MDA-MB-468 breast carcinoma, MCF7 breast carcinoma, Hs578T breast carcinoma, MALME-3M melanoma, SK-MEL-2 melanoma, SK-OV-3 ovarian carcinoma, DU-145 prostate carcinoma, PC-3 prostate carcinoma, all cell lines along with major genetic alterations are listed on Table 2. Pooled donor human umbilical vein endothelial cells (HUVEC, Lonza, cat. CC-2519) and human mesenchymal stem cells (hMSC, Lonza, cat. PT-2501) were purchased from Lonza (Walkersville, MD).
PDMR cell lines were grown in complete medium (DC medium): Dulbecco's modified Eagle's medium (DMEM)/F12 supplemented with 5% fetal bovine serum (FBS), 2 mM L-glutamine, 100 U/mL penicillin and 100 µg/ml streptomycin, 0.4 µg/ml hydrocortisone, 10 ng/ml epidermal growth factor (EGF) recombinant human protein, 24 µg/mL adenine, and 0.1 mg/mL primocin. During culture from frozen stock vials, PDMR cells were cultured in the same medium containing 10 µM Y-27632 (see Table 3). The PDCs were cultured in complete DMEM/F12 media without 10 microM Y-27632 dihydrochloride for at least two passages prior to the screen. The pooled donor HUVEC and hMSC were cultured in endothelial cell growth medium 2 (PromoCell, Heidelberg, Germany, cat. C-22011) and mesenchymal stem cell growth medium 2 (PromoCell, cat. C-28009), respectively. For all experiments, HUVEC and hMSC were used at passages </=5.
[…]

[1] = second compound 0.1 µM, first compound 0.0316 µM
[2] = second compound 0.1 µM, first compound 0.1 µM
[3] = second compound 0.1 µM, first compound 0.316 µM
[4] = second compound 0.1 µM, first compound 1 µM
[5] = second compound 0.1 µM, first compound 3.16 µM
[6] = second compound 0.1 µM, first compound 10 µM
[7] = second compound 0.316 µM, first compound 0.0316 µM
[8] = second compound 0.316 µM, first compound 0.1 µM
[9] = second compound 0.316 µM, first compound 0.316 µM
[10] = second compound 0.316 µM, first compound 1 µM
[11] = second compound 0.316 µM, first compound 3.16 µM
[12] = second compound 0.316 µM, first compound 10 µM
[13] = second compound 1 µM, first compound 0.0316 µM
[14] = second compound 1 µM, first compound 0.1 µM
[15] = second compound 1 µM, first compound 0.316 µM
[16] = second compound 1 µM, first compound 1 µM
[17] = second compound 1 µM, first compound 3.16 µM
[18] = second compound 1 µM, first compound 10 µM
[19] = second compound 3.16 µM, first compound 0.0316 µM
[20] = second compound 3.16 µM, first compound 0.1 µM
[21] = second compound 3.16 µM, first compound 0.316 µM
[22] = second compound 3.16 µM, first compound 1 µM
[23] = second compound 3.16 µM, first compound 3.16 µM
[24] = second compound 3.16 µM, first compound 10 µM
[25] = second compound 10 µM, first compound 0.0316 µM
[26] = second compound 10 µM, first compound 0.1 µM
[27] = second compound 10 µM, first compound 0.316 µM
[28] = second compound 10 µM, first compound 1 µM
[29] = second compound 10 µM, first compound 3.16 µM
[30] = second compound 10 µM, first compound 10 µM

| Structure (SMILES) | pIC50 (second compound 0.1 µM) | pIC50 (second compound 0.316 µM) | pIC50 (second compound 1 µM) | pIC50 (second compound 3.16 µM) | pIC50 (second compound 10 µM) | viability, T/C [1] [%] | viability, T/C [2] [%] | viability, T/C [3] [%] | viability, T/C [4] [%] | viability, T/C [5] [%] | viability, T/C [6] [%] | viability, T/C [7] [%] | viability, T/C [8] [%] | viability, T/C [9] [%] | viability, T/C [10] [%] | viability, T/C [11] [%] | viability, T/C [12] [%] | viability, T/C [13] [%] | viability, T/C [14] [%] | viability, T/C [15] [%] | other results |
| --- | --- | --- | --- | --- | --- | --- | --- | --- | --- | --- | --- | --- | --- | --- | --- | --- | --- | --- | --- | --- | --- |
| CC1(C)CCC(CN2CCN(c3ccc(C(=O)NS(=O)(=O)c4ccc(NCC5CCOCC5)c([N+](=O)[O-])c4)c(Oc4cnc5[nH]ccc5c4)c3)CC2)=C(c2ccc(Cl)cc2)C1 + CC(C)NCC(C(=O)N1CCN(c2ncnc3c2C(C)CC3O)CC1)c1ccc(Cl)cc1 | 5.46 | 6.30 | > 7.50 | > 7.50 | > 7.50 | 86.7 | 87.5 | 78.1 | 74.9 | 53.3 | 11.5 | 58.1 | 53.6 | 50.6 | 45.2 | 37 | 8.7 | 30.5 | 29.4 | 30.9 | viability, T/C [16]: 28.6%; viability, T/C [17]: 27.1%; viability, T/C [18]: 10.4%; viability, T/C [19]: 23.1%; viability, T/C [20]: 20.6%; viability, T/C [21]: 20.4%; viability, T/C [22]: 19.6%; viability, T/C [23]: 19.9%; viability, T/C [24]: 5.88%; viability, T/C [25]: 19.1%; viability, T/C [26]: 19.2%; viability, T/C [27]: 18.4%; viability, T/C [28]: 16.9%; viability, T/C [29]: 15.9%; viability, T/C [30]: 5.38% |
| CCCS(=O)(=O)Nc1ccc(F)c(C(=O)c2c[nH]c3ncc(-c4ccc(Cl)cc4)cc23)c1F + CC(C)NCC(C(=O)N1CCN(c2ncnc3c2C(C)CC3O)CC1)c1ccc(Cl)cc1 | < 5.00 | < 5.00 | > 7.50 | > 7.50 | > 7.50 | 88.2 | 91.3 | 86.6 | 96.3 | 96.7 | 68.2 | 53.9 | 64.1 | 61.4 | 76.4 | 66.8 | 43.6 | 33.1 | 31.8 | 37.7 | viability, T/C [16]: 41.2%; viability, T/C [17]: 46.3%; viability, T/C [18]: 29.9%; viability, T/C [19]: 22.3%; viability, T/C [20]: 25.9%; viability, T/C [21]: 24.4%; viability, T/C [22]: 22.4%; viability, T/C [23]: 23.6%; viability, T/C [24]: 20.3%; viability, T/C [25]: 19.6%; viability, T/C [26]: 20.1%; viability, T/C [27]: 19.1%; viability, T/C [28]: 19.7%; viability, T/C [29]: 18.3%; viability, T/C [30]: 14.2% |
